Results reported in publication PMC4764904 (Scientific Reports, 2016).
Where two headings read alike, the source gives them in different places. Where a SMILES comes first, the peptide text is derived from it. Where no end group is shown, it is not given here. [ ]: non-standard residue; d: D form. Cit = NC(=O)NCCC[C@H](N)C(=O)O; pGlu = O=C1CC[C@@H](C(=O)O)N1

Experiments:
[1] = molecular target: T1, human GALR2 (Homo sapiens, UniProt O43603); test: SRE-luc reporter assay, GALR2; format: cell-based;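 further: luciferase activity read in cell lysates after exposure to rising peptide concentrations, EC50 being the agonist level giving half-maximal stimulation from a sigmoidal nonlinear regression fit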
T1 construct: host or cells: HEK293 cells stably expressing Gαqi
T1 sequence (O43603 1-387): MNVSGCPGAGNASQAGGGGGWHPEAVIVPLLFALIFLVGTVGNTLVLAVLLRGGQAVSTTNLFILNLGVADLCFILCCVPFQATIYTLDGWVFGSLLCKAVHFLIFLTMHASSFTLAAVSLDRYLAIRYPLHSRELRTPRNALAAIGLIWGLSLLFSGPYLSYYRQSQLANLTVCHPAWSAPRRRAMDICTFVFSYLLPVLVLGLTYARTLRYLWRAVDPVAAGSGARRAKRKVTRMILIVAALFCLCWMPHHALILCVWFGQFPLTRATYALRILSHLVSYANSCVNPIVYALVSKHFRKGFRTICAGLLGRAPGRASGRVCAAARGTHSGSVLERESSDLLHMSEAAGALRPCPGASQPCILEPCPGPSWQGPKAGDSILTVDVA
Method: (§1) The generated mutant SPX peptides were incubated with cells expressing GALR2 and GALR3. […] The activities of the receptors were traced using the serum-response element-driven luciferase (SRE-luc) assay system.
(§2) The SRE-luc reporter vector and plasmid containing human GALR1, GALR2, or GALR3 were transfected into HEK293 cells that stably expressed Gqi protein. Cells were then treated with increasing concentrations of mutant peptides, and the receptor activities were determined using the SRE-luc reporter system.
(§3) HEK293 cells stably expressing Gαqi, which mediates Gαi-coupled receptor activation by stimulating Gαq-dependent signaling pathways[59], were maintained in Dulbecco’s modified Eagle’s medium (DMEM) supplemented with 10% FBS, 100 U/ml penicillin G, and 100 μg/ml streptomycin (Invitrogen). Cells were seeded in 48-well plates at a density of 2 × 10^4 cells per well, one day before transfection. A mixture containing 75 ng of the SRE-luc reporter construct, 75 ng of expression plasmid, and 2 μl of Effectene reagent (Qiagen, Chatsworth, CA, USA) was prepared and added to each well according to the manufacturer’s instructions. Cells were then maintained in serum-free DMEM for 16–18 h before treatment with the ligands. Approximately 48 h after transfection, cells were treated with the respective ligands for 6 h. Cells were lysed by the addition of 100 μl lysis buffer. The luciferase activity in 50 μl of cell extract was determined by a luciferase assay system according to the standard protocol for the Synergy 2 Multi-Mode Microplate Reader (BioTek, Winooski, VT, USA).
(§4) For in vitro studies data analysis was performed by nonlinear regression with a sigmoidal dose-response. The agonist concentrations that induced half-maximal stimulation (EC50) or half-maximal inhibition of binding (IC50) were calculated with GraphPad PRISM4 software (GraphPad Software Inc., San Diego, CA, USA). […] All data are presented as mean ± S.E. of at least three independent experiments and a P value of P < 0.05 was considered statistically significant.

[2] = molecular target: T2, human GALR3 (Homo sapiens, UniProt O60755); test: SRE-luc reporter assay, GALR3; format: cell-based;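 further: luciferase activity read in cell lysates across rising peptide concentrations, EC50 being the agonist concentration giving half-maximal stimulation from a sigmoidal nonlinear fit, Gαqi routing Gi-coupled receptor signaling through Gq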
T2 construct: host or cells: HEK293 cells stably expressing Gαqi
T2 sequence (O60755 1-368): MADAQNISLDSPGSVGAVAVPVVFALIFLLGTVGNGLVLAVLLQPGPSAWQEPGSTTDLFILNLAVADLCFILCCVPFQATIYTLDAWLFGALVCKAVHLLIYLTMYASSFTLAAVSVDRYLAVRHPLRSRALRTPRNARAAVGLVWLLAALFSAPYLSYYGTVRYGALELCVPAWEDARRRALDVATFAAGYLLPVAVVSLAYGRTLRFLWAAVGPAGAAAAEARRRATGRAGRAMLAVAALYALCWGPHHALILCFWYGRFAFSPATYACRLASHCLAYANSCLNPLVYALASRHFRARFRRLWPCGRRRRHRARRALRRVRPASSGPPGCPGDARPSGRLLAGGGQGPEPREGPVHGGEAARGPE
Method: as §1, §2, §3, §4

[3] = HEK293-Gqi cells transfected with SRE-luc and human GALR2, 6 h ligand treatment, mean ± S.E. of at least three independent experiments, NM = not measurable, read-out: GALR2 EC50
[4] = HEK293-Gqi cells transfected with SRE-luc and human GALR3, 6 h ligand treatment, mean ± S.E. of at least three independent experiments, NM = not measurable, read-out: GALR3 EC50

Compound: NWTPNAMLYLKGAQ-NH2 [N5]
- EC50 [1, 3]: 0.0617 ± 0.0127 µM
- EC50 [2, 4]: 0.501 ± 0.184 µM

Compound: NWTPQAMLYLFGAQ-NH2 [F11]
- EC50 [1]: 0.049 ± 0.0101 µM
- EC50 [2]: 0.708 ± 0.119 µM

Compound: CSCC[C@H](NC(=O)[C@H](C)NC(=O)[C@H](CCC(N)=O)NC(=O)[C@@H]1CCCN1C(=O)[C@@H](NC(=O)[C@H](Cc1c[nH]c2ccccc12)NC(=O)[C@@H](N)CC(N)=O)[C@@H](C)O)C(=O)N[C@@H](CC(C)C)C(=O)N[C@H](Cc1ccc(O)cc1)C(=O)N[C@@H](CC(C)C)C(=O)N[C@@H](CCCCN)C(=O)NCC(=O)N[C@@H](C)C(=O)N[C@@H](CCC(N)=O)C(N)=O [dY9]
- EC50 [1, 3]: > 10 µM
- EC50 [2, 4]: > 10 µM

Compound: NWTLQAMLYLKGAQ-NH2 [L4]
- EC50 [1, 3]: 0.0589 ± 0.00759 µM
- EC50 [2, 4]: 0.105 ± 0.0176 µM

Compound: CSCC[C@H](NC(=O)[C@H](C)NC(=O)[C@H](CCC(N)=O)NC(=O)[C@@H]1CCCN1C(=O)[C@H](NC(=O)[C@H](Cc1c[nH]c2ccccc12)NC(=O)[C@@H](N)CC(N)=O)[C@H](C)O)C(=O)N[C@@H](CC(C)C)C(=O)N[C@@H](Cc1ccc(O)cc1)C(=O)N[C@@H](CC(C)C)C(=O)N[C@@H](CCCCN)C(=O)NCC(=O)N[C@@H](C)C(=O)N[C@@H](CCC(N)=O)C(N)=O [dT3]
- EC50 [1, 3]: > 10 µM
- EC50 [2, 4]: > 10 µM

Compound: CSCC[C@H](NC(=O)[C@H](C)NC(=O)[C@H](CCC(N)=O)NC(=O)[C@@H]1CCCN1C(=O)[C@@H](NC(=O)[C@H](Cc1c[nH]c2ccccc12)NC(=O)[C@@H](N)CC(N)=O)[C@@H](C)O)C(=O)N[C@@H](CC(C)C)C(=O)N[C@@H](Cc1ccc(O)cc1)C(=O)N[C@H](CC(C)C)C(=O)N[C@@H](CCCCN)C(=O)NCC(=O)N[C@@H](C)C(=O)N[C@@H](CCC(N)=O)C(N)=O [dL10]
- EC50 [1, 3]: > 10 µM
- EC50 [2, 4]: > 10 µM

Compound: NWTPNAALYLFGAQ-NH2 [N5A7F11]
- EC50 [1, 3]: 0.107 ± 0.0201 µM
- EC50 [2, 4]: > 10 µM

Compound: NWTPNAALYLFGAH-NH2 [N5A7F11H14]
- EC50 [1, 3]: 0.0545 ± 0.0108 µM
- EC50 [2, 4]: 3.02 ± 0.978 µM

Compound: NWTPQAALYLKGAQ-NH2 [A7]
- EC50 [1, 3]: 0.0389 ± 0.00728 µM
- EC50 [2, 4]: 0.468 ± 0.0696 µM

Compound: NWTPQAMLYLLGAQ-NH2 [L11]
- EC50 [1, 3]: 0.0363 ± 0.01 µM
- EC50 [2, 4]: 0.331 ± 0.062 µM

Compound: NWTPQAMLYLKGPQ-NH2 [P13]
- EC50 [1, 3]: 0.0389 ± 0.0058 µM
- EC50 [2, 4]: 0.38 ± 0.0491 µM

Compound: CSCC[C@H](NC(=O)[C@@H](C)NC(=O)[C@H](CCC(N)=O)NC(=O)[C@@H]1CCCN1C(=O)[C@@H](NC(=O)[C@H](Cc1c[nH]c2ccccc12)NC(=O)[C@@H](N)CC(N)=O)[C@@H](C)O)C(=O)N[C@@H](CC(C)C)C(=O)N[C@@H](Cc1ccc(O)cc1)C(=O)N[C@@H](CC(C)C)C(=O)N[C@@H](CCCCN)C(=O)NCC(=O)N[C@@H](C)C(=O)N[C@@H](CCC(N)=O)C(N)=O [dA6]
- EC50 [1, 3]: 0.209 ± 0.027 µM
- EC50 [2, 4]: 0.316 ± 0.0471 µM

Compound: NWTPQAALYLFGAQ-NH2 [A7F11]
- EC50 [1, 3]: 0.145 ± 0.027 µM
- EC50 [2, 4]: > 10 µM

Compound: CSCC[C@H](NC(=O)[C@H](C)NC(=O)[C@H](CCC(N)=O)NC(=O)[C@@H]1CCCN1C(=O)[C@@H](NC(=O)[C@H](Cc1c[nH]c2ccccc12)NC(=O)[C@@H](N)CC(N)=O)[C@@H](C)O)C(=O)N[C@@H](CC(C)C)C(=O)N[C@@H](Cc1ccc(O)cc1)C(=O)N[C@@H](CC(C)C)C(=O)N[C@@H](CCCCN)C(=O)N[C@H](C)C(=O)N[C@@H](C)C(=O)N[C@@H](CCC(N)=O)C(N)=O [dA12] (H-NWTPQAMLYLK[dA]AQ-NH2)
- EC50 [1, 3]: 1.23 ± 0.159 µM
- EC50 [2, 4]: 1.41 ± 0.21 µM

Compound: CSCC[C@H](NC(=O)[C@H](C)NC(=O)[C@H](CCC(N)=O)NC(=O)[C@@H]1CCCN1C(=O)[C@@H](NC(=O)[C@H](Cc1c[nH]c2ccccc12)NC(=O)[C@@H](N)CCCNC(N)=O)[C@@H](C)O)C(=O)N[C@@H](CC(C)C)C(=O)N[C@@H](Cc1ccc(O)cc1)C(=O)N[C@@H](CC(C)C)C(=O)N[C@@H](CCCCN)C(=O)NCC(=O)N[C@@H](C)C(=O)N[C@@H](CCC(N)=O)C(N)=O [Cit1] (H-[Cit]WTPQAMLYLKGAQ-NH2)
- EC50 [1, 3]: 0.0617 ± 0.019 µM
- EC50 [2, 4]: 0.251 ± 0.065 µM

Compound: NWTPQAMLYLKGAH-NH2 [Ha14]
- EC50 [1, 3]: 0.0537 ± 0.00692 µM
- EC50 [2, 4]: 0.0708 ± 0.0105 µM

Compound: CSCC[C@H](NC(=O)[C@H](C)NC(=O)[C@H](CCC(N)=O)NC(=O)[C@@H]1CCCN1C(=O)[C@@H](NC(=O)[C@H](Cc1c[nH]c2ccccc12)NC(=O)[C@@H]1CCC(=O)N1)[C@@H](C)O)C(=O)N[C@@H](CC(C)C)C(=O)N[C@@H](Cc1ccc(O)cc1)C(=O)N[C@@H](CC(C)C)C(=O)N[C@@H](CCCCN)C(=O)NCC(=O)N[C@@H](C)C(=O)N[C@@H](CCC(N)=O)C(N)=O [pQ1] ([pGlu]WTPQAMLYLKGAQ-NH2)
- EC50 [1, 3]: 0.035 ± 0.00782 µM
- EC50 [2, 4]: 0.0617 ± 0.0104 µM

Compound: NWTPQAMGYLKGAQ-NH2 [G8]
- EC50 [1, 3]: 1.02 ± 0.132 µM
- EC50 [2, 4]: 1.23 ± 0.108 µM

Compound: GWTPQAMLYLKGAQ-NH2 [G1]
- EC50 [1, 3]: 0.0363 ± 0.00747 µM
- EC50 [2, 4]: 0.0933 ± 0.0209 µM
